According to patent US5063242A (priority 1990, dated 1991):

Test system: carrageenan footpad edema in rats
Conditions: rat, in vivo, po, 5 mg/kg

For `COc1ccc2c(c1)c(CC(=O)O)c(C)n2C(=O)c1ccc(Cl)cc1` [Indomethacin], the “% I” value was 48% and the “Delta Edema (x ± SEM)” value was 40 ± 2.5.
